The text below walks through data of article PMC11108860 (Heliyon, 2024).

SMILES strings stand for the structures. Like-named read-outs stand apart in the source and are kept apart here.

For orientation: IC50 means the concentration that gives 50% inhibition.

Assay [1] deals with K562 cells. Kind of assay: Western blotting of proliferation- and apoptosis-related proteins in K562 cells. The format is cell-based, human. The following applies: for cleaved caspase-3 after inhibitor treatment: Fig. 6B,D, similar to EGCG treatment. A general note: A western blot detects proteins with antibodies after separation by electrophoresis.
Another assay concerns the target T1, OR2AT4-6xHis protein (Homo sapiens, UniProt A6NND4).
T1 sequence (A6NND4 1-320): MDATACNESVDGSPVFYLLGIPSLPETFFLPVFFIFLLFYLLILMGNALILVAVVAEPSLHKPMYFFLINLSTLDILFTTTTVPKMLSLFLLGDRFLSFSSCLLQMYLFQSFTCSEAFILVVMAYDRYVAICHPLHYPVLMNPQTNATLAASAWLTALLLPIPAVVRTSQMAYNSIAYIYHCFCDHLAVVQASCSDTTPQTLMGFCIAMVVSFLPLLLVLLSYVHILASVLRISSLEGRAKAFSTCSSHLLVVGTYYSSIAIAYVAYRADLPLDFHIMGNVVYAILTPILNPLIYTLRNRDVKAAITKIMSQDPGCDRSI
Kind of assay: SPR sensorgrams on immobilized OR2AT4-6xHis, concentration series. The format is binding. Particulars: 100 μM (Fig. 2A).

Assay [2] concerns K562 cells. Kind of assay: Cell viability assay. The format is cell-based, human. Particulars: for cell viability: K562; for IC50: Homo sapiens, read-out: IC50 (cell viability).
Assay [3] concerns K562 cells. Kind of assay: Calcium imaging. It counts as cell-based, human.
The target in a further assay is T2, OR2AT4 (Homo sapiens, UniProt A6NND4).
T2 sequence (A6NND4 1-320): T1 sequence (A6NND4 1-320)
Kind of assay: Calcium imaging. It counts as cell-based. Particulars: 0 to 1 mM; OR2AT4-expressing cells.

For assay [4], the system named is Molt-4 cells. Put plainly: Calcium imaging. The format is cell-based.
Assay [5] concerns K562 cells. Put plainly: Apoptosis assay. The format is cell-based, human. Particulars: for percentage of total apoptotic cells: 200 μM.
Assay [6] relates to Molt-4 cells. Put plainly: Cell viability assay. The following applies: 24, 48, and 72 h. It counts as cell-based.
The mark [7] stands for this setting: K562, EGCG 200 μM, 30 min after treatment.
The mark [8] stands for this setting: OR2AT4 siRNA-transfected K562 cells, EGCG treatment.

Take `CCCCCCCCCCCCCCCCCCOP(=O)([O-])OC1CC[N+](C)(C)CC1` [Perifosine, reference compound]: the p-Akt result with K562 cells [1] (K562, Fig. 6A) was “downregulation”. Besides, the “cleaved caspase-3 after inhibitor treatment” value in the assay with K562 cells [1] (K562) is recorded as “upregulation”.

As for `CC1=CCC(CCC(C)C(C)O)C1(C)C` (stereo not drawn) [Sandalore, reference compound], the “reactivity with OR2AT4 recombinant protein (SPR)” value at OR2AT4-6xHis protein is “confirming the reactivity”. Also, in the assay with K562 cells [2] (Fig. S2), the cell viability entry is listed as “decreased cell viability in a concentration-dependent manner”. In addition, in the assay with K562 cells [3] (2 mM), the “intracellular calcium response in K562 cells” value was “increased intracellular Ca^2+ levels”. Further, the “intracellular calcium response, dose-response” value on OR2AT4 was “increased calcium response in a concentration-dependent manner”. Moreover, the “intracellular calcium response in Molt-4 cells” value in the assay with Molt-4 cells [4] (2 mM) was “no immediate calcium response”.

As to `O=C(O[C@@H]1Cc2c(O)cc(O)cc2O[C@@H]1c1cc(O)c(O)c(O)c1)c1cc(O)c(O)c(O)c1` [EGCG, (−)-epigallocatechin gallate], the “percentage of late apoptotic cells, time course” value with K562 cells [5] (200 μM, 24, 48, and 72 h) was “increased the percentage of late apoptotic cells in a time-dependent manner”. The “percentage of total apoptotic cells” value was determined as 50% in the assay with K562 cells [5] (24 h), 58.03% in the assay on K562 cells [5] (48 h) and 64.52% in the assay on K562 cells [5] (72 h). Moreover, the “expression of Bax” value in the assay with K562 cells [1] (K562) is “no significant difference”. Moreover, the “expression of Bcl-2” value in the assay on K562 cells [1] (K562) was “no significant difference”. For the same molecule, the “levels of cleaved caspase-3, time course” value in the assay with K562 cells [1] (K562, 200 μM, 24 and 48 h) is recorded as “increased in a time-dependent manner”. For the same molecule, the “protein level of phosphor-AKT” value in the assay with K562 cells [1] (setting [7]) is on record as “downregulated”. The “protein level of phosphor-p38 MARK” value in the assay with K562 cells [1] (setting [7]) is listed as “downregulated”. For the same molecule, in the assay with K562 cells [1] (K562, EGCG 200 μM, starting from 15 min), the “expression of phosphor-STAT5” value is recorded as “began to decrease”. Besides, the “expression levels of cleaved caspase-8” value in the assay with K562 cells [1] (K562, time- and concentration-dependent) is “upregulated”. Further, the “caspase-8 in OR2AT4 siRNA-transfected K562 cells” value in the assay with K562 cells [1] (setting [8]) is recorded as “significantly reduced”. In the assay with K562 cells [1] (setting [8]), the “cleaved caspase-3 in OR2AT4 siRNA-transfected K562 cells” value is given as “significantly reduced”. Besides, the half-maximal inhibitory concentration (IC50) with K562 cells [2] (K562, 48 h) stood at 146 µM; in the assay on K562 cells [2] (K562, 72 h), 158 µM. In addition, the cell viability result in the assay on K562 cells [2] (24, 48, and 72 h, 0-500 μM) was “decreased cell viability in a time- (24, 48, and 72 h) and concentration-dependent manner”. The “intracellular calcium response in K562 cells” value with K562 cells [3] (0.2 mM) is on record as “elevated the calcium response”. Besides, at OR2AT4, the “intracellular calcium response, dose-response” value is “increased intracellular calcium levels in a concentration-dependent manner”. Moreover, the “intracellular calcium response in Molt-4 cells” value in the assay on Molt-4 cells [4] (200 μM) was “no immediate calcium response”. In addition, the “concentrations with sudden onset of cell death” value with Molt-4 cells [6] is recorded as “above 100 μM”.

As to `COc1cc2c3cc1Oc1c(OC)c(OC)cc4c1[C@@H](Cc1ccc(O)c(c1)Oc1ccc(cc1)C[C@@H]3N(C)CC2)N(C)CC4` [Berbamine], on OR2AT4, the “intracellular calcium response, dose-response” value was “increased intracellular calcium levels in a concentration-dependent manner”.

For `C[S+]([O-])c1ccc(-c2nc(-c3ccncc3)c(-c3ccc(F)cc3)[nH]2)cc1` (stereo not drawn) [SB203580, reference compound], the “cleaved caspase-3 after inhibitor treatment” value in the assay with K562 cells [1] (K562) is listed as “upregulation”. The “p-p38 MAPK” value in the assay with K562 cells [1] (K562, Fig. 6C) is given as “downregulation”.
